These results are taken from ChEMBL document CHEMBL3232888, “Optimization of anti-virulence PqsR antagonists regarding aqueous solubility and biological properties resulting in new insights in structure-activity relationships” (Eur J Med Chem, 2014).

A short description of data set [1]: Aqueous solubility of the compound in 2% DMSO at pH 7.4 by HPLC analysis. Type of data set: physicochemical. Particulars: aqueous medium with 2% DMSO.
In data set [2] the test system is Pseudomonas aeruginosa. Kind of data set: Antagonist activity at Pseudomonas aeruginosa PqsR expressed in Escherichia coli DH5alpha assessed as inhibition of PQS-induced transcriptional activity at 50 nM by beta-galactosidase reporter gene assay relative to PQS.
For data set [3], the system named is Pseudomonas aeruginosa. Kind of data set: Growth inhibition of Pseudomonas aeruginosa. It counts as organism-based. The following applies: in vivo.
A short description of data set [4]: Antagonist activity at Pseudomonas aeruginosa PqsR expressed in Escherichia coli DH5alpha assessed as inhibition of PQS-induced transcriptional activity by beta-galactosidase reporter gene assay relative to PQS.
The test system of data set [5] is Pseudomonas aeruginosa. Kind of data set: Antivirulence activity in Pseudomonas aeruginosa PA14 assessed as reduction of extracellular level of pyocyanin at 10 uM relative to control. It counts as functional. Set-up: scale not given: the % may be the effect or the level left.
For data set [6], the system named is Pseudomonas aeruginosa. Put plainly: Agonist activity at Pseudomonas aeruginosa PqsR expressed in Escherichia coli DH5alpha assessed as induction of transcriptional activity at 5 uM by beta-galactosidase reporter gene assay relative to PQS.
Data set [7] relates to Pseudomonas aeruginosa. Kind of data set: Antagonist activity at Pseudomonas aeruginosa PqsR expressed in Escherichia coli DH5alpha assessed as inhibition of PQS-induced transcriptional activity at 5 uM by beta-galactosidase reporter gene assay relative to PQS.
Data set [8] concerns Pseudomonas aeruginosa. Put plainly: Antivirulence activity in Pseudomonas aeruginosa PA14 assessed as reduction of extracellular level of PQS at 10 uM by UHPLC-MS/MS analysis relative to control. Type of data set: functional. Also on record: scale not given: the % may be the effect or the level left.

In turn, `CCCCCCCc1cc(=O)c2cc(C(F)(F)F)ccc2[nH]1` displayed a solubility in data set [1] of under 5 µM. The inhibition stood at 54% with Pseudomonas aeruginosa [2] and 100% in the data set on Pseudomonas aeruginosa [7]. For the same compound, the Activity result with Pseudomonas aeruginosa [3] was “Non-toxic”; in the data set on Pseudomonas aeruginosa [5], 27%; in the data set with Pseudomonas aeruginosa [6], 0%; with Pseudomonas aeruginosa [8], 2.4%. Also, in data set [4], the 50% inhibitory concentration (IC50) was determined as 0.054 µM.
